Patent US20190119645A1, “GENERATION OF ADULT-LIKE HEART MUSCLE FROM HUMAN PLURIPOTENT STEM CELLS” (The Johns Hopkins University, priority 2015, published 2019)

Key:
hiPSC-derived neurons = test: Patch-clamp recording of spontaneous synaptic events in hiPSC-derived neurons; assay type: cell-based, human; settings: 10 μM; hiPSC-derived neurons in slices and in cultures; applied with Bic
Protocol: (§1) Transverse brain slices of 350 μm thickness were prepared at 8 weeks after differentiated hiPSC cells injection using a vibratome (Leica VT1200S). Slices were incubated in artificial cerebrospinal fluid (ACSF) containing (in mM): NaCl 125, KCl 2.5, MgSO4 1, NaH2PO4 1.25, NaHCO3 26, CaCl2 2, and D-glucose 10. Slices were maintained in ACSF and continuously bubbled with 95% O2 and 5% CO2, first at 34° C. for 30 min, and then at room temperature. A single slice was transferred into a submerged recording chamber and perfused constantly with carbogen-equilibrated ACSF at a rate of 2 ml/min Injected human neurons expressing RFP were visualized under a 40× water immersion objective by fluorescence and DIC optics (Carl Zeiss, Germany). […] Resting membrane potential (RMP) was recorded in current clamp mode at 0 pA immediately after establishing whole-cell configuration. Series resistance (Rseries) and input resistance (Rin) were calculated from a 5 mV pulse and monitored throughout the experiment. […]
(§2) For voltageclamp experiments, the membrane potential was typically held at −70 mV. […] Data were acquired by PatchMaster software (HEKA Elektronik, Lambrech, Germany) Na^+ and K^+ currents and action potentials were analyzed using Clampfit 10.5 software (Molecular devices, Palo Alto, Calif., USA). Spontaneous synaptic events were analyzed using MiniAnalysis software (Synaptosoft, Decatur, Ga., USA). […]

[1] = test system: functional sodium and potassium channels in hiPSC-neurons; test: Voltage-clamp recording of Na+ and K+ currents in hiPSC-derived neurons; assay type: cell-based, human; settings: depolarizing voltage steps; hiPSC-neurons after 8 weeks of maturation
Protocol: as §1, §2

Row | SMILES | spontaneous synaptic events (hiPSC-derived neurons) | voltage-dependent inward and outward currents, sensitivity [1]
1 | N#Cc1cc2c(cc1[N+](=O)[O-])=NC(=O)C(=O)N=2 [CNQX, 6-Cyano-7-nitroquinoxaline-2,3-dione] | blocked | 
2 | CC[N+](CC)(CC)CC [TEA] |  | selectively sensitive
